A word on the IC50: it is the concentration that inhibits the measured activity by half.

Drawing on patent publication US20240270751A1, “Pyrazolopyridinone Compounds” (BeiGene Ltd., priority 2021, published 2024), this text covers IC50 for 27 compounds.

One assay has as its target DGKζ (Homo sapiens (Human), UniProt Q13574). Nature of the assay: Biochemical DGK IC50 assay, DGKζ ADP-Glo assay. Particulars: 0.5 nM enzyme, 140 μM ATP, 80 μM DAG; read-out: DGKζ ADP-Glo assay IC50. The gist of the method: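 ADP formation measured by ADP-Glo luminescence, with test compounds at final 1.55–10000 nM or 23.3–150000 nM. Enzyme: purified full-length human DGKζ from Sf9 insect cells; substrate: DAG/PS micelles in 25 mM HEPES pH 7.0, 0.5 mM EDTA, octyl glucoside.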
In general terms: ADP-Glo turns the ADP formed in a reaction into a luminescent signal.

Another assay concerns the target DGKα (Homo sapiens (Human), UniProt P23743). Description: Biochemical DGK IC50 assay, DGKα ADP-Glo assay. The conditions noted are these: 7.5 nM enzyme, 140 μM ATP, 80 μM DAG. The gist of the method: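 Compounds at final 1.55˜10000 nM or 23.3˜150000 nM were tested against full-length DGKα. Substrate was lipid micelles of DAG and PS resuspended in 25 mM HEPES pH 7.0 with 0.5 mM EDTA and 160 mM octyl β-D-glucopyranoside. ADP formed was detected by ADP-Glo.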

Molecules are shown by their SMILES.

DGKα, sequence (P23743 whole entry): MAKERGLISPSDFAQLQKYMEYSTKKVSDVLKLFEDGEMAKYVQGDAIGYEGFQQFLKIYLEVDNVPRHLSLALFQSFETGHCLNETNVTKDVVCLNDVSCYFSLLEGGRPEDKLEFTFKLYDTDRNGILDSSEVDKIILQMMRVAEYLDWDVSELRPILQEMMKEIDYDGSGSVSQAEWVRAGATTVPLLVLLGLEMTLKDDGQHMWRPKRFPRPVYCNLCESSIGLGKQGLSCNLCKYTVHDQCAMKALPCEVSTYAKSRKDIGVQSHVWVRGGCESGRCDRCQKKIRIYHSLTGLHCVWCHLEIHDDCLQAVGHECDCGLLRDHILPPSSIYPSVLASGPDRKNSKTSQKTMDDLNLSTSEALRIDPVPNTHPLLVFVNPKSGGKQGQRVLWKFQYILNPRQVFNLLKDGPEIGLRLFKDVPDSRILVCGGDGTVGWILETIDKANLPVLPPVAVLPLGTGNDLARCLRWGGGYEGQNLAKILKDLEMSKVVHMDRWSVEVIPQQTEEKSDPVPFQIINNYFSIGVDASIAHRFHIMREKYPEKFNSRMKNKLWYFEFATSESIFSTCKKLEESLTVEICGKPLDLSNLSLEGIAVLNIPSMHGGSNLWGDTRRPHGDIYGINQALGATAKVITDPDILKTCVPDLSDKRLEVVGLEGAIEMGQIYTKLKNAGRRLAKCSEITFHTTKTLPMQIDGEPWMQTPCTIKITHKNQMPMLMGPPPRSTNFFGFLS
DGKζ, sequence (Q13574 other isoform, or with tags, fused parts or gaps): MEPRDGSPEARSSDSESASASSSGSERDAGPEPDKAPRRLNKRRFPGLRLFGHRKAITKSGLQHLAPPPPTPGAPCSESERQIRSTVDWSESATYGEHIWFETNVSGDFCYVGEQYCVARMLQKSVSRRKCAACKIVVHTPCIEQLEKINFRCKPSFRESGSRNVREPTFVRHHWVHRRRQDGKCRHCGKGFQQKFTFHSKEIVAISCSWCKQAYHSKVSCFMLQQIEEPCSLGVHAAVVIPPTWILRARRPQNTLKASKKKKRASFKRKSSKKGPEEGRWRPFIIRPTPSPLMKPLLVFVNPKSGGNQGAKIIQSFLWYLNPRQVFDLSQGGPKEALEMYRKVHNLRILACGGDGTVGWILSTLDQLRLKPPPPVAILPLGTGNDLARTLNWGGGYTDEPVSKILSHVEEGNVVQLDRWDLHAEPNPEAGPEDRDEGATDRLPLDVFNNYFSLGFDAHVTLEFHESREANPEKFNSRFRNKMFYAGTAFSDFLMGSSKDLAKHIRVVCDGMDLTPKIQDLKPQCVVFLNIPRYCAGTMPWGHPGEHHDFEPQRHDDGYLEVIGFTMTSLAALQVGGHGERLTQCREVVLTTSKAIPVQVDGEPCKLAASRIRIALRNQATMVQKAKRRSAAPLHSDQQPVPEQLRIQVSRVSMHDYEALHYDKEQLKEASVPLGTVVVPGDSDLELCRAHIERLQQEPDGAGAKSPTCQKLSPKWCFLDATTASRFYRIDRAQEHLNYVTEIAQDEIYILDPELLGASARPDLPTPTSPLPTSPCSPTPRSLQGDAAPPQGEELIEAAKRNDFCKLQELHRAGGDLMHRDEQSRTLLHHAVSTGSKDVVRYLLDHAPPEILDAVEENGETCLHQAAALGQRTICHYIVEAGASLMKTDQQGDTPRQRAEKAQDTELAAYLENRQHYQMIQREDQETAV

For `CCc1cnc2ccc(C(C)N3C[C@H](C)N(c4cc(=O)n(C)c5cn(CC#N)nc45)C[C@H]3C)cc2n1` (stereo partly drawn) [Compound A278, 2-(7-((2S,5R)-4-(1-(3-ethylquinoxalin-6-yl)ethyl)-2,5-dimethylpiperazin-1-yl)-4-methyl-5-oxo-4,5-dihydro-2H-pyrazolo[4,3-b]pyridin-2-yl)acetonitrile], the values for the IC50 on DGKζ and against DGKα were 0.064 µM and 55.1 µM, respectively.

For the compound `CC(c1ccc2ncc(O)nc2c1)N1C[C@H](C)N(c2cc(=O)n(C)c3cn(CC#N)nc23)C[C@H]1C` (stereo partly drawn) [Compound A279, 2-(7-((2S,5R)-4-(1-(3-hydroxyquinoxalin-6-yl)ethyl)-2,5-dimethylpiperazin-1-yl)-4-methyl-5-oxo-4,5-dihydro-2H-pyrazolo[4,3-b]pyridin-2-yl)acetonitrile], the half-inhibitory concentration (IC50) at DGKζ and at DGKα was over 10 µM in each case.

As to `CC(c1ccc2ncc(Cl)nc2c1)N1C[C@H](C)N(c2cc(=O)n(C)c3cn(CC#N)nc23)C[C@H]1C` (stereo partly drawn) [Compound A280, 2-(7-((2S,5R)-4-(1-(3-chloroquinoxalin-6-yl)ethyl)-2,5-dimethylpiperazin-1-yl)-4-methyl-5-oxo-4,5-dihydro-2H-pyrazolo[4,3-b]pyridin-2-yl)acetonitrile], the IC50 at DGKζ was found to be 0.034 µM; against DGKα, 26 µM.

Take `COc1cnc2cc(C(C)N3C[C@H](C)N(c4cc(=O)n(C)c5cn(CC#N)nc45)C[C@H]3C)ccc2n1` (stereo partly drawn) [Compound A283, 2-(7-((2S,5R)-4-(1-(2-methoxyquinoxalin-6-yl)ethyl)-2,5-dimethylpiperazin-1-yl)-4-methyl-5-oxo-4,5-dihydro-2H-pyrazolo[4,3-b]pyridin-2-yl)acetonitrile]: the IC50 at DGKζ was determined as 0.881 µM; at DGKα it was 12.4 µM.

Regarding `CC(c1ccc2nc(O)cnc2c1)N1C[C@H](C)N(c2cc(=O)n(C)c3cn(CC#N)nc23)C[C@H]1C` (stereo partly drawn) [Compound A284, 2-(7-((2S,5R)-4-(1-(2-hydroxyquinoxalin-6-yl)ethyl)-2,5-dimethylpiperazin-1-yl)-4-methyl-5-oxo-4,5-dihydro-2H-pyrazolo[4,3-b]pyridin-2-yl)acetonitrile], the half-inhibitory concentration (IC50) at DGKζ was over 10 µM; at DGKα, 6.48 µM.

As for `CC(c1ccc(F)cc1P(C)(C)=O)N1C[C@H](C)N(c2cc(=O)n(C)c3cn(CC#N)nc23)C[C@H]1C` (stereo partly drawn) [Compound A285], the IC50 on DGKζ and against DGKα was over 10 µM each time.

Consider `CC[C@H]1CN(C(C)c2ccc(F)c(F)c2C(F)(F)F)[C@H](CC)CN1c1cc(=O)n(C)c2cn(CC#N)nc12` (stereo partly drawn) [Compound A288], for which the IC50 is 0.263 µM on DGKζ and 3.4 µM on DGKα.

As for `CC[C@H]1CN(C(C)c2ccc(F)cc2C(N)=O)[C@H](CC)CN1c1cc(=O)n(C)c2cn(CC#N)nc12` (stereo partly drawn) [Compound A289], the half-inhibitory concentration (IC50) on DGKζ was 1.13 µM; against DGKα, over 10 µM.

Turning to `CC[C@H]1CN(C(C)c2ccc(F)cc2C(=O)OC)[C@H](CC)CN1c1cc(=O)n(C)c2cn(CC#N)nc12` (stereo partly drawn) [Compound A290], the IC50 at DGKζ is 0.425 µM; against DGKα it was 56.4 µM.

With `CC[C@H]1CN(C(C)c2ccc(F)cc2C(=O)N(C)C)[C@H](CC)CN1c1cc(=O)n(C)c2cn(CC#N)nc12` (stereo partly drawn) [Compound A292], the IC50 is 1.91 µM on DGKζ and over 150 µM against DGKα.

Take `CCC(c1ccc(F)cc1C(F)(F)F)N1C[C@H](CC)N(c2cc(=O)n(C)c3cn(CC#N)nc23)C[C@H]1CC` (stereo partly drawn) [Compound A293]: the IC50 on DGKζ stood at 0.237 µM; on DGKα it was 9.95 µM.

With `Cc1nc2ccc(C(C)N3C[C@H](C)N(c4cc(=O)n(C)c5cn(CC#N)nc45)C[C@H]3C)cc2nc1C` (stereo partly drawn) [Compound A294, 2-(7-((2S,5R)-4-(1-(2,3-dimethylquinoxalin-6-yl)ethyl)-2,5-dimethylpiperazin-1-yl)-4-methyl-5-oxo-4,5-dihydro-2H-pyrazolo[4,3-b]pyridin-2-yl)acetonitrile], the IC50 on DGKζ was determined as 3.86 µM; against DGKα, 69.6 µM.

For `CCO[C@@H]1CN(c2cc(=O)n(C)c3cn(CC#N)nc23)CC[C@H]1Oc1cccc(C(F)(F)F)c1` [Compound A295, 2-(7-((3R,4R)-3-ethoxy-4-(3-(trifluoromethyl)phenoxy)piperidin-1-yl)-4-methyl-5-oxo-4,5-dihydro-2H-pyrazolo[4,3-b]pyridin-2-yl)acetonitrile], the results for the half-inhibitory concentration (IC50) at DGKζ and at DGKα were 0.563 µM and 5.69 µM, respectively.

For `CC[C@H]1CN(C(C(=O)NCCOC)c2ccc(C(F)(F)F)cc2)[C@H](CC)CN1c1cc(=O)n(C)c2cn(CC#N)nc12` (stereo partly drawn) [Compound A296, 2-((2R,5S)-4-(2-(cyanomethyl)-4-methyl-5-oxo-4,5-dihydro-2H-pyrazolo[4,3-b]pyridin-7-yl)-2,5-diethylpiperazin-1-yl)-N-(2-methoxyethyl)-2-(4-(trifluoromethyl)phenyl)acetamide], the IC50 came to 0.189 µM at DGKζ and 3.9 µM on DGKα.

As for `C[C@@H]1CN(c2cc(=O)n(C)c3cn(CC#N)nc23)[C@@H](C)CN1C(C)(C)c1ccc(F)cc1` [Compound A297, 2-(7-((2S,5R)-4-(2-(4-fluorophenyl)propan-2-yl)-2,5-dimethylpiperazin-1-yl)-4-methyl-5-oxo-4,5-dihydro-2H-pyrazolo[4,3-b]pyridin-2-yl)acetonitrile], the IC50 on DGKζ is over 10 µM; against DGKα, 8.18 µM.

In the case of `Cc1cnc2ccc(N(C)C3CC(C)N(c4cc(=O)n(C)c5cn(CC#N)nc45)CC3C)cc2n1` (stereo not drawn) [Compound A298, 2-(7-(2,5-dimethyl-4-(methyl(3-methylquinoxalin-6-yl)amino)piperidin-1-yl)-4-methyl-5-oxo-4,5-dihydro-2H-pyrazolo[4,3-b]pyridin-2-yl)acetonitrile], the values for the IC50 on DGKζ and on DGKα were 8.91 µM and over 150 µM, respectively.

On to `C=CCn1cc2c(n1)c(N1C[C@@H](C)N([C@@H](C)c3ccc4ncc(C)nc4c3)C[C@@H]1C)cc(=O)n2C` [Compound A301, 2-allyl-7-((2S,5R)-2,5-dimethyl-4-((S)-1-(3-methylquinoxalin-6-yl)ethyl)piperazin-1-yl)-4-methyl-2,4-dihydro-5H-pyrazolo[4,3-b]pyridin-5-one], for which the figures for the IC50 on DGKζ and against DGKα were 0.131 µM and over 150 µM, respectively.

In the case of `CC=CCn1cc2c(n1)c(N1C[C@@H](C)N([C@@H](C)c3ccc4ncc(C)nc4c3)C[C@@H]1C)cc(=O)n2C` [Compound A302, 2-(but-2-en-1-yl)-7-((2S,5R)-2,5-dimethyl-4-((S)-1-(3-methylquinoxalin-6-yl)ethyl)piperazin-1-yl)-4-methyl-2,4-dihydro-5H-pyrazolo[4,3-b]pyridin-5-one], the IC50 worked out at 0.068 µM on DGKζ and 35.4 µM against DGKα.

Turning to `Cc1cnc2ccc([C@H](C)N3C[C@H](C)N(c4cc(=O)n(C)c5cn(CC=C(F)F)nc45)C[C@H]3C)cc2n1` [Compound A303, 2-(3,3-difluoroallyl)-7-((2S,5R)-2,5-dimethyl-4-((S)-1-(3-methylquinoxalin-6-yl)ethyl)piperazin-1-yl)-4-methyl-2,4-dihydro-5H-pyrazolo[4,3-b]pyridin-5-one], the IC50 amounted to 0.019 µM on DGKζ and 102 µM on DGKα.

Consider `CC(c1cc2ccccc2cn1)N1C[C@H](C)N(c2cc(=O)n(C)c3cn(CC#N)nc23)C[C@H]1C` (stereo partly drawn) [Compound A305], for which the IC50 came out at 1.19 µM at DGKζ and 1.49 µM against DGKα.

As for `Cc1ccc2ccc(C(C)N3C[C@H](C)N(c4cc(=O)n(C)c5cn(CC#N)nc45)C[C@H]3C)cc2n1` (stereo partly drawn) [Compound A306], the IC50 came to 0.495 µM at DGKζ and 18.2 µM at DGKα.

As to `CC(c1ccc2ccc(C#N)cc2c1)N1C[C@H](C)N(c2cc(=O)n(C)c3cn(CC#N)nc23)C[C@H]1C` (stereo partly drawn) [Compound A307], the figures for the IC50 on DGKζ and on DGKα were 1.75 µM and 2.47 µM, respectively.

Regarding `Cc1cnc2ccc([C@H](C)N3C[C@H](C)N(c4cc(=O)[nH]c5cn(CC#N)nc45)C[C@H]3C)cc2n1` [Compound A308], the IC50 at DGKζ was found to be 0.072 µM; at DGKα, 88.3 µM.

On to `CC(c1ccc2ncc(CO)nc2c1)N1C[C@H](C)N(c2cc(=O)n(C)c3cn(CC#N)nc23)C[C@H]1C` (stereo partly drawn) [Compound A309, 2-(7-((2S,5R)-4-(1-(3-(hydroxymethyl)quinoxalin-6-yl)ethyl)-2,5-dimethylpiperazin-1-yl)-4-methyl-5-oxo-4,5-dihydro-2H-pyrazolo[4,3-b]pyridin-2-yl)acetonitrile], for which the IC50 at DGKζ worked out at 0.88 µM; on DGKα, 108 µM.

In the case of `CC(c1ccc2ncc(C3CC3)nc2c1)N1C[C@H](C)N(c2cc(=O)n(C)c3cn(CC#N)nc23)C[C@H]1C` (stereo partly drawn) [Compound A310, 2-(7-((2S,5R)-4-(1-(3-cyclopropylquinoxalin-6-yl)ethyl)-2,5-dimethylpiperazin-1-yl)-4-methyl-5-oxo-4,5-dihydro-2H-pyrazolo[4,3-b]pyridin-2-yl)acetonitrile], the concentration for half-maximal inhibition (IC50) on DGKζ worked out at 0.127 µM; at DGKα, 94.7 µM.

In the case of `CC(c1ccc2ncc(C(F)F)nc2c1)N1C[C@H](C)N(c2cc(=O)n(C)c3cn(CC#N)nc23)C[C@H]1C` (stereo partly drawn) [Compound A311, 2-(7-((2S,5R)-4-(1-(3-(difluoromethyl)quinoxalin-6-yl)ethyl)-2,5-dimethylpiperazin-1-yl)-4-methyl-5-oxo-4,5-dihydro-2H-pyrazolo[4,3-b]pyridin-2-yl)acetonitrile], the values for the IC50 at DGKζ and against DGKα were 0.041 µM and 6.63 µM, respectively.

As to `CC(c1ccc2ncc(C(C)(F)F)nc2c1)N1C[C@H](C)N(c2cc(=O)n(C)c3cn(CC#N)nc23)C[C@H]1C` (stereo partly drawn) [Compound A312, 2-(7-((2S,5R)-4-(1-(3-(1,1-difluoroethyl)quinoxalin-6-yl)ethyl)-2,5-dimethylpiperazin-1-yl)-4-methyl-5-oxo-4,5-dihydro-2H-pyrazolo[4,3-b]pyridin-2-yl)acetonitrile], the results for the IC50 on DGKζ and against DGKα were 0.238 µM and 66 µM, respectively.
